Test results taken from US8507219B2, “Method of treating inflammation with statins” (MUSC Foundation for Research Development, priority 1997, dated 2013).
Several values for one entry are separate records, joined by “and”; a condition that tells them apart may be missing. Equal entries are not always repeated. Entries after “also recorded” stand apart in the source; their conditions may differ. Where two headings read alike, the source gives them in different places.

What was measured:
[1] = test system: astrocytes, microglia or macrophages
Excerpt: Cell viability Cytotoxic effects of the inhibitors were deter-mined by measuring the cell viability by Trypan blue exclusion.

[2] = Plasma total cholesterol in X-ALD patients on lovastatin; format: in vivo, human; conditions: individual patients, at six months (Patients 1, 2, 3, 6, 7), four months (Patient 4), three months (Patient 5)
[3] = human, in vivo
sterol synthesis = conditions: Sinensky et al., 1991; read-out: IC50 for inhibition of sterol synthesis; cited from earlier work
[4] = Plasma very-long-chain fatty acids (C26:0) in X-ALD patients on lovastatin; format: in vivo, human
[5] = test system: conversion of pro-p21^ras to mature-p21^ras; conditions: Sinensky et al., 1991; read-out: IC50 for inhibition of conversion of pro-p21^ras to mature-p21^ras; cited from earlier work
[6] = test system: rat primary oligodendrocytes; assay: Apoptosis (DNA fragmentation, laddering) in rat primary oligodendrocytes; format: cell-based; conditions: 10 mM NAC 1 h; diamide 0.5 mM, TNF-α 50 ng/ml or C2-ceramide; 12 h
Method: Detection of DNA fragmentation Cells (1×10^6) were pelleted in an eppendorf tube by centrifugation at 1,000 rpm for 5 min, washed with PBS (pH 7.4), resuspended gently in 50 μl of a lysis buffer [200 mM NaCl, 10 mM Tris-HCl (pH 8.0), 40 mM EDTA (pH 8.0), 0.5% SDS, 400 ng RNase A/μl] and incubated at 37° C. for 1 h. The lysate received 200 μl of the digestion buffer [200 mM NaCl, 10 mM Tris-HCl (pH 8.0), 0.5% SDS, 125 ng proteinase K/μl]. The contents were mixed by inversion several times and then incubated at 50° C. for 2 h. An equal volume of a mixture phenol (pH 8.0), chloroform and isoamyl alcohol (25:24:1, v/v) was added, gently mixed for 10 min, and stored at room temperature for 2 min. […] The gel was stained with ethidium bromide and DNA-intercalated ethidium fluorescence was photographed on Polaroid film 665 (P/N) using an orange filter. […]
Detection of DNA Fragmentation Cells (1×10^6) were pelleted in an Eppendorf tube by centrifugation at 1000 rpm for 5 min, washed with phosphate-buffered saline, pH 7.4, resuspended gently in 50 μl of a lysis buffer (200 mM NaCl, 10 mM Tris-HCl, pH 8.0, 40 mM EDTA, pH 8.0, 0.5% SDS, 400 ng of RNase A/μl), and incubated at 37° C. for 1 h. […] The gel was stained with ethidium bromide, and DNA-intercalated ethidium fluorescence was photographed on Polaroid film 665 (P/N) using an orange filter. […]

[7] = test system: cholesterol synthesis in rat primary astrocytes
[8] = individual X-ALD patients, lovastatin 20 then 40 mg per day

For `CC[C@H](C)C(=O)O[C@H]1C[C@@H](C)C=C2C=C[C@H](C)[C@H](CC[C@@H]3C[C@@H](O)CC(=O)O3)[C@H]21` [Lovastatin], the “viability (trypan blue exclusion)” value [1] was “had no effect on the viability of astrocytes, microglia, or macrophages”, the “viability (trypan blue exclusion)” value ([1]; rat) was “none of the compounds lovastatin, mevastatin, NaPA, TNF-α, IL-1β, IFN-γ, or LPS had a significant effect on the viability” and the “Plasma Total Cholesterol After Treatment” value ([2]; after four months of treatment) was 167 mg/dL. The “Plasma Total Cholesterol After Treatment” value ([2]; after six months of treatment) was 158 mg/dL and 204 mg/dL and 230 mg/dL and 183 mg/dL and 96 mg/dL, the “adverse events leading to withdrawal” value [3] was “persistent diarrhea and a marked elevation of serum creatine kinase levels” and the IC50 (sterol synthesis) was 0.01 µM. For the same compound, the “plasma levels of very-long-chain fatty acids (C26:0), words” value ([4]; five patients who continued the treatment) was “remained low and within the normal range for up to six months”, the “Plasma Very-Long-Chain Fatty Acids AT 1 MO” value ([4]; individual X-ALD patients (one line each), lovastatin 20 mg per day two weeks, then 40 mg per day, normal controls 0.24 ± 0.13) was 0.42 micrograms per milliliter and 0.37 micrograms per milliliter and 0.5 micrograms per milliliter and 0.43 micrograms per milliliter and 0.24 micrograms per milliliter and 0.3 micrograms per milliliter and 0.44 micrograms per milliliter and the “Plasma Very-Long-Chain Fatty Acids AT 2 MO” value [4, 8] was 0.41 micrograms per milliliter (2×) and 0.5 micrograms per milliliter and 0.42 micrograms per milliliter (2×) and 0.21 micrograms per milliliter and 0.34 micrograms per milliliter. For the same compound, the “Plasma Very-Long-Chain Fatty Acids AT 3 MO” value [4, 8] was 0.56 micrograms per milliliter and 0.3 micrograms per milliliter and 0.43 micrograms per milliliter and 0.21 micrograms per milliliter and 0.32 micrograms per milliliter and 0.36 micrograms per milliliter, the “Plasma Very-Long-Chain Fatty Acids AT 4 MO” value [4, 8] was 0.35 micrograms per milliliter and 0.34 micrograms per milliliter (2×) and 0.42 micrograms per milliliter and 0.22 micrograms per milliliter and 0.37 micrograms per milliliter and the “Plasma Very-Long-Chain Fatty Acids AT 5 MO” value [4, 8] was 0.17 micrograms per milliliter and 0.41 micrograms per milliliter (2×) and 0.26 micrograms per milliliter and 0.21 micrograms per milliliter. For the same compound, the “Plasma Very-Long-Chain Fatty Acids AT 6 MO” value [4, 8] was 0.17 micrograms per milliliter (3×) and 0.16 micrograms per milliliter and 0.21 micrograms per milliliter and the IC50 [5] was 2.6 µM.
With `CC(=O)N[C@@H](CS)C(=O)O` [NAC, N-acetyl cysteine] the “ceramide formation and DNA fragmentation / apoptosis” value [6] was “inhibited the induction of ceramide formation and DNA fragmentation; also recorded: had no effect on C2-ceramide-mediated apoptosis in oligodendrocytes”.
With `O=C([O-])Cc1ccccc1.[Na+]` [NaPA, sodium salt of phenylacetic acid] the “cytotoxicity at higher doses” value (X-ALD fibroblasts) was “cytotoxic to the X-ALD fibroblasts” and the “inhibition of the synthesis of cholesterol” value [7] was 64±5.3%.
